Assay results as given in paper PMC12383145, “Fluorescent Peptides Internalize HeLa Cells and Kill Multidrug-Resistant Clinical Bacterial Isolates” (Antibiotics, 2025).
“And” between values parts separate entries of the source, which are not always exact repeats. Equal entries are not always repeated. Residues, ends and D or L forms follow the SMILES beside them. *: point of attachment. RhodamineB = CCN(CC)c1ccc2c(-c3ccccc3C(=O)*)c3ccc(=[N+](CC)CC)cc-3oc2c1

Columns and labels:
Type in all cases: cell-based
[1] = MTT cytotoxicity assay in HeLa cells
[2] = test system: E. faecalis clinical isolate 213; details: clinical isolate 213, 24 h
[3] = test system: E. coli clinical isolate 129797 (resistant); details: clinical isolate 129797 (resistant, 24 h)
[4] = test system: E. faecalis clinical isolate 179; details: clinical isolate 179, 24 h
[5] = test system: E. coli clinical isolate 301755 (MDR); details: clinical isolate 301755 (MDR, 24 h)
[6] = test system: E. coli clinical isolate 1004 (susceptible); details: clinical isolate 1004 (susceptible, 24 h)
[7] = test system: S. aureus clinical isolate 109095; details: clinical isolate 109095, 24 h
[8] = test system: S. aureus clinical isolate 124653; details: clinical isolate 124653, 24 h
[9] = test system: E. faecalis clinical isolate 82; details: clinical isolate 82, 24 h

Minimal inhibitory concentration (MIC) [2]: > 105 µM | Minimal inhibitory concentration (MIC) [3]: > 105 µM | Minimal inhibitory concentration (MIC) [4]: > 105 µM | Minimal inhibitory concentration (MIC) [5]: > 105 µM | Minimal inhibitory concentration (MIC) [6]: > 105 µM | Minimal inhibitory concentration (MIC) [7]: 26 µM | Minimal inhibitory concentration (MIC) [8]: 105 µM | Minimal inhibitory concentration (MIC) [9]: 26 µM
Compound: CCN(CC)c1ccc2c(-c3ccccc3C(=O)N[C@@H](CCCNC(=N)N)C(=O)N[C@@H](Cc3c[nH]c4ccccc34)C(=O)N[C@@H](CCC(N)=O)C(=O)N[C@@H](Cc3c[nH]c4ccccc34)C(=O)N[C@@H](CCCNC(=N)N)C(=O)N[C@@H](Cc3c[nH]c4ccccc34)C(=O)N[C@@H](CCC(N)=O)C(=O)N[C@@H](Cc3c[nH]c4ccccc34)C(=O)N[C@@H](CCCNC(=N)N)C(N)=O)c3ccc(=[N+](CC)CC)cc-3oc2c1 [RhB-1, RhB-RWQWRWQWR] (RhodamineB-RWQWRWQWR-NH2)
IC50 [1]: 117 µg/mL and 61 µM | Minimal bactericidal concentration (MBC) [2]: > 105 µM | Minimal bactericidal concentration (MBC) [3]: > 105 µM | Minimal bactericidal concentration (MBC) [4]: > 105 µM | Minimal bactericidal concentration (MBC) [5]: > 105 µM | Minimal bactericidal concentration (MBC) [6]: > 105 µM | Minimal bactericidal concentration (MBC) [7]: 105 µM | Minimal bactericidal concentration (MBC) [8]: 105 µM | Minimal bactericidal concentration (MBC) [9]: 105 µM
